Data taken from article PMC6271551 (2014).

Test system: F21T (DNA, G4) GGGTTAGGGTTAGGGTTAGGG
Test: FRET melting
Settings: 0.1 M KCl, 10 mM sodium cacodylate pH 7.2, 0.25 µM DNA

Row | SMILES | ΔTm (50 µM compound) | ΔTm (120 µM compound, authors: almost no interaction)
1 | COc1ccc2cc3[n+](cc2c1OC)CCc1cc2c(cc1-3)OCO2 | ~ 15.5 °C | –
2 | COc1ccc(Cc2nccc3cc(OC)c(OC)cc23)cc1OC | – | ~ 5 °C
